Data published in patent US20240165135A1, “COMPOSITIONS AND METHODS FOR THE TREATMENT OF CANCER” (The State of Israel, Ministry of Agriculture & Rural …, priority 2021, published 2024).

What was measured:
A172 GBM cells = test: XTT cell viability assay on A172; assay type: cell-based, Human; details: for effect of IA, AN or B alone on A172 cell viability: 10 μM; for IC50: Homo sapiens, A 172, 48 h
Method: Cell cultures—Human glioblastoma A172 (ATCC®CRL-1620™) was cultured in DMEM (01-055-1A, Biological Industries, Israel) and U87MG (U87; ATCC®HTB-14™) in EMEM (01-058-1A; Biological Industries, Israel). Both media were supplemented with 10% fetal bovine serum (FBS, 04-127-1A, Biological Industries, Israel), 1% Pen-Strep, 1% L-Glutamine and 0.02% plasmocin (i.e., complete medium). Cells were incubated at 37° C. in a humidified atmosphere containing 5% CO2—95% air. Serum free media (SFM) was composed of DMEM/F12 (01-170-1A; Biological Industries, Israel), including all the supplements above except for FBS. Neurosphere media for A172 was composed of SFM with 2% B-27; Neurosphere media for U87 was serum-free EMEM without B27. For Glioblastoma stem cells (GSCs) cultures all human materials were used in accordance with the policies of the Henry Ford Hospital Institutional Review Board. Generation of GSCs from fresh GBM specimens and their characterization have been recently described. The GSCs were plated in neurosphere medium (DMEM-F12 1:1, glutamine 10 mM, HEPES buffer 10 mM and sodium bicarbonate 0.025%) supplemented with EGF and bFGF (20 ng/mL).
(§1) Cell viability assays—Cells were seeded in 96-well plates at density of 2×10^4 per well (100 μL/well) in SFM (for A172) or complete medium (for U87) and were incubated at 37° C. overnight to allow attachment. The following day, cells were treated with plant extracts (n=3), fractions, or cannabinoid standards in volume of 100 μL/well at different concentrations. Solvents used as a vehicle control and doxorubicin was used as a positive control in all the biological assays. Where indicated, CB1 or CB2 inverse agonists, TRPV1 or TRPV2 antagonists or TRPA1 blocker were added along with the indicated treatments at a concentration of 10 μM/mL in complete medium. Treated cells were incubated for 48 h at 37° C. Subsequently, XTT reagents (2,3-bis(2-methoxy-4-nitro-5-sulfophenyl)-5-[(phenylamine)-carbonyl]-2H-tetrazolium inner salt) (20-300-1000; Biological Industries, Israel) were added to the cells for 2 hours at 37° C. in a humidified 5% CO2—95% air atmosphere. Absorbance was recorded by a Synergy H1 hybrid reader photometer (BioTek) at 490 nm with 650 nm of reference wavelength. Cell viability was estimated from the equation: […]
(§2) For dose response assays, data points were connected by non-linear regression lines of the sigmoidal dose-response relation. GraphPad Prism version 6.1 (www(dot)graphpad(dot)com/scientific-software/prism/, GraphPad Software Inc., San Diego, USA) was employed to produce dose-response curves and determination of IC50 values.

[1] = system: ovarian cancer cell line HTB75; test: XTT cell viability assay on HTB75; assay type: cell-based; details: for effect of IA, AN or B alone on HTB75 cell viability: 10 μM, 48 h
Method: FIGS. 17A-B show cell viability of HTB75 cells (FIG. 17A) following treatment with crude extract of cannabis strains DQ, Paris, GB-11, GB-14 and GB-18. Cell viability was determined by XTT assay as a function of live cell number. NT is the vehicle treated control (1% v/v methanol). Error bars indicate ±SE (n=3). […] (FIG. 17B) following treatment with C. sativa DQ crude extract at different concentrations for IC50 value calculation from 5P logistic curve fit using GraphPad Prism version 6.1. Error bars indicate ±SE (n=3).
FIGS. 18A-C show cell viability of HTB75 cells following treatment with DQ extract fractions F1-F8, and crude extract. FIG. 18A—Cell viability was determined by XTT assay as a function of live cell number. NT is the vehicle treated control (1% v/v methanol). Error bars indicate ±SE (n=3). […] (FIGS. 18B-C) Cell viability of HTB75 cells following treatment with C. sativa DQ fractions F5 and F7 at different concentrations for IC50 values calculation from 5P logistic curve fit using GraphPad Prism version 6.1. Error bars indicate ±SE (n=3).
as §1, §2

A172 cells = test: Scratch-wound assay, A172 cell migration; assay type: cell-based, Human; details: 36 hours; F4 20, F4-SM 11.5, F5 20, F5-SM 11.5, Doxo 0.5 μg/mL
Method: Scratch-wound assay—A172 cells were seeded in a 96-well plate at a density of 2×10^4 per well in 100 μL of complete medium. Following 24 hours, cells in each well were scratched perpendicularly across the center of the well with a 200 μL pipette tip to produce a cell-free area for investigating the ability of the cells to migrate and close the gap under different treatments. Immediately following scratching, 100 μL of treatment solution was added. Photos were taken by a CARL ZEISS inverted microscope coupled with a camera at 0, 14, 20, and 36 hours following scratching, and the gap area was measured using ImageJ (version 1.53a). The scratch area, indicated by cells migrated into the scratch was calculated as percent of scratch area at time x from time 0: […]

HTB75 cells [2] = test: Combined treatments with chemotherapy drugs on HTB75 viability, Bliss-independence model; assay type: cell-based; details: combination treatments
Description: FIGS. 23A-C are graphs showing synergistic interactions between fractions of some embodiments of the invention with (FIG. 23A) cisplatin, (FIG. 23B) gemcitabine and (FIG. 23C) niraparib on cell viability of HTB75 cells following combined treatments. Synergy of cytotoxic activity calculated based on Bliss-independence drug interaction model. Synergy is apparent when the experimental (observed) value of cell survival inhibition is higher than the calculated (expected) value. Values of delta of observed minus expected values, calculated based on Bliss model are shown in the Y axis.

[3] = given orally per mouse; reference [2]; cited from earlier work
HTB75 cells [4] = test: Apoptosis/necrosis, annexin V-FITC and PI FACS, HTB75; assay type: cell-based; details: 48 h; niraparib 5.1, F5 19.1, F7 19.4, F5-SM 17.4, F7-SM 16.3 μg/mL; vehicle control 17.3%
Method: (§3) 10^4 cells were analyzed per treatment. Control is vehicle control (1.5% v/v methanol). The treated cells were harvested and analyzed in FACS following annexin V-FITC and PI staining. Error bars indicate ±SE (n=3).
Apoptosis assay—Apoptosis for the A172 cell line was assessed using MEBCYTO Apoptosis Kit with Annexin V-FITC and PI (MBL, Enco, 4700). Staining was carried out according to manufacturer's instructions. In brief, cells were seeded in a 6-well TC plate, at a density of 4×10^5 cells in 2 mL of SFM per well. 24 hours following seeding, cells were treated with the indicated treatments in complete medium for 48 hours. Following incubation, cells were harvested using trypsin and centrifuged for 5 minutes at 1600 rpm. Cell pellets were resuspended and washed twice with 1 mL of PBS. The cells in each sample were resuspended in 85 μL of Annexin binding buffer. Cells were stained using 10 μL of Annexin V-FITC solution and 5 μL of propidium iodide (PI) working solution followed by incubation in the dark at room temperature for 15 minutes. Then 400 μL of Annexin V binding buffer was added to each tube and flow cytometry was performed using a Gallios flow cytometer (FACS). Cells were considered apoptotic if they were Annexin V+/PI− (early apoptosis) or Annexin V+/PI+ (late apoptosis). Live cells were defined as Annexin V−/PI−, and Annexin V−/PI+ as necrosis.

MAPK4 gene = test: Quantitative PCR of MAPK4 gene in HTB75 cell line; assay type: cell-based; details: 2 h, relative to control
Method: FIG. 24 is a graph showing quantitative PCR-based determination of the RNA steady state level in HTB75 cell line of MAPK4 gene, after treatment with niraparib, F5, F7 or combination of niraparib+F5 or niraparib+F7, for 2 h relative to control. Gene transcript values were determined by quantitative PCR as a ratio between the target gene versus a reference gene (Hypoxanthine Phosphoribosyltransferasel; HPRT1; geneID 3251). Values were calculated relative to the average expression of target genes in treated versus control using the 2ΔΔCt method. Control (methanol) treatment served as solvent (vehicle) control; Error bars indicate ±s.e.m. (n=3).

HTB75 cells [5] = test: Cell cycle FACS, HTB75; assay type: cell-based; details: 24 h; F5-SM 17.4 μg/mL, niraparib 4 μg/mL; control 21.4%
Method: as §3
Cell cycle analysis—A172 cells were seeded in 6-well TC plate at a concentration of 4×10^5 cells in 2 mL of SFM per well. Following 24 hours incubation, cells were treated with indicated treatments in complete medium for 24 hours. Methanol and doxorubicin were used as negative and positive controls, respectively. Cells were harvested and centrifuged for 5 minutes at 1600 rpm. Cell pellets were washed once with 1 mL of PBS and fixed with 70% cold ethanol overnight at −20° C. The fixed cells were washed twice with 1 mL of PBS and stained with 250 μL of PI solution (50 μg/mL) containing RNase A (100 μg/mL) for 30 minutes in dark conditions. 250 μL PBS was added to each tube and the cells were analyzed using FACS.

In the case of `Cc1c(C(=O)NN2CCCCC2)nn(-c2ccc(Cl)cc2Cl)c1-c1ccc(I)cc1` [AM251], the “effect of IA, AN or B alone on A172 cell viability” value (shortened to “effect … on A172 cell viability”) (A172 GBM cells; 48 hours) is reported as “reduced A172 cell viability to a minor, non-significant extent” and the “effect of IA, AN or B alone on HTB75 cell viability” value (shortened to “effect … on HTB75 cell viability”) [1] is reported as “did not affect HTB75 cell viability”.

With `CCCCCc1cc(O)c(C/C=C(\C)CCC=C(C)C)c(O)c1` [CBG, cannabigerol] the “inhibition of cell migration in comparison to the vehicle control” value (A172 cells) was 2.8% and the IC50 (A172 GBM cells) was 5 mg/L.

With `Nc1ccn([C@@H]2O[C@H](CO)[C@@H](O)C2(F)F)c(=O)n1` [Gemcitabine] the “synergy of gemcitabine with F5, F7, F5-SM, F7-SM” value (HTB75 cells [2]) was “no considerable synergy”.

With `CCCCCc1cc(O)c2c(c1)OC(C)(C)[C@@H]1CCC(C)=C[C@@H]21` [THC, Tetrahydrocannabinol] the “inhibition of cell migration in comparison to the vehicle control” value (A172 cells) was 12.5%, the IC50 (A172 GBM cells) was 4.83 mg/L and the “effectiveness of phytocannabinoid combinations on HTB75 viability” value ([1]; fixed total concentration 13 and 15 μg/mL, ratios as in F5 or F7) was “less effective than various combinations of THC, CBC, CBG and CBN”.

For `Cn1nnc2c(C(N)=O)ncn2c1=O` [TMZ, temozolomide], the “effect on A172 viability / cell death” value (A172 GBM cells; up to 50 μg/mL, 48 hours) was “no effect”.

With `CC(C)c1ccc(NC(=O)Cn2cnc3c2c(=O)n(C)c(=O)n3C)cc1` [TRPA1 B, HC-030031] the “effect … on A172 cell viability” value (A172 GBM cells; 48 hours) was “reduced A172 cell viability to a minor, non-significant extent” and the “effect … on HTB75 cell viability” value [1] was “did not affect HTB75 cell viability”.

With `COc1cccc(NC(=O)/C=C/c2ccc(Cl)cc2)c1` [TRPV1 AN, SB-366791] the “effect … on A172 cell viability” value (A172 GBM cells; 48 hours) was “reduced A172 cell viability to a minor, non-significant extent” and the “effect … on HTB75 cell viability” value [1] was “did not affect HTB75 cell viability”.

In the case of `CO` [methanol], the LD50 [3] is listed as ~7300 mg/kg.

In the case of `NC(=O)c1cccc2cn(-c3ccc([C@@H]4CCCNC4)cc3)nc12` [niraparib], the cell apoptosis (HTB75 cells [4]) is reported as 64.1%, the “MAPK4 expression” value (MAPK4 gene) is reported as “reduced” and the “percentage of cells in S phase” value (HTB75 cells [5]) is reported as 48.3%.

With SR144528 [CB2 IA] the “effect … on A172 cell viability” value (A172 GBM cells; 48 hours) was “reduced A172 cell viability to a minor, non-significant extent” and the “effect … on HTB75 cell viability” value [1] was “did not affect HTB75 cell viability”.
